Here are results for two compounds from patent US10265274B2, “Formulations and kits for forming bioadhesive matrices” (Technology Innovation Momentum Fund (Israel) Limited …, priority 2012, dated 2019).

Where a name gives a salt, the structure may show the parent alone.

The subject of one data set is Fibroblast cells. As to the kind of experiment: Cytotoxicity test, Alamar Blue reduction. It is filed as cell-based. The following applies: fibroblasts, 24 hours, relative to control cells. Here is the method:
Fibroblast cells (14th passage) were thawed and cultured in […] flasks with culture medium at 37° C., humidified atmosphere and 5% CO2. The cells were cultured with modified Eagle's medium supplemented with 10% fetal bovine serum, 1% L-glutamine and 0.1% penicillin-streptomycin-nystatin. At confluence of 70% (at passages 16-19) the cells were separated using incubation for 3 minutes with 1 ml trypsin A, the free cells were added to the culture medium and seeded in a 6 well plate.
When confluence of 70% was reached the medium was replaced by 2 ml of medium containing 10% v/v Alamar blue for 4 hours of incubation. Thereafter, two 100 μL samples were taken from each well and inserted to a 96 well plate. The plate was inserted for analysis at a spectrophotometer (Spectra max 340 PC384, Molecular Devices) at 570 and 600 nm.
Two experiments were carried out, at first each component of the bioadhesive were inserted separately to a test tube containing 4 ml medium and incubated for 24 hours and then that medium was added to the cells instead of the medium containing Alamar Blue. In the second experiment, the medium with Alamar Blue was replaced with 4 ml of fresh medium and 0.1 ml of bioadhesive was added to the medium and incubated for 24 hours followed by another reading using Alamar Blue.
The reduction of Alamar Blue's absorption was calculated using the manufacturer's protocol, namely Alamar Blue reduction=(ε600A^t570−ε570A^t600)/(ε570A^c600−ε600A^c570), wherein ε570 and ε600 are the molar extinction coefficients of oxidized Alamar Blue at 570 nm and 600 nm respectively, A^t and Ac are the absorbance of test and control respectively at 570 nm and 600 nm respectively, whereas the control is taken as the medium with Alamar blue but without any cells.

The conditions of data set [1]: cited from earlier work.

With `CC(C)Cc1ccc(C(C)C(=O)[O-])cc1.[Na+]` (centres unmarked) [ibuprofen, Ibuprofen sodium salt], the cell viability came out at 93.5% in the data set with Fibroblast cells (aqueous drug solution 2% w/v) and 79.7% with Fibroblast cells (aqueous drug solution 3% w/v).

On to `CCCCN1CCCCC1C(=O)Nc1c(C)cccc1C` (centres unmarked) [bupivacaine, Bupivacaine hydrochloride], for which the figures for the cell viability with Fibroblast cells (aqueous drug solution 2% w/v) and with Fibroblast cells (aqueous drug solution 3% w/v) were 67.6% and 58.8%, respectively. Moreover, the “isoelectric points (pKa)” value in data set [1] is recorded as 8.1-8.4.
